Tests used:
[1] = Nonlinear mixed effect (NLME) compartmental modeling of merged IV and oral serum concentrations; settings: for AUCIV: dosing time to infinity after intravenous dosing; for AUCVO: dosing time to infinity after oral dosing, MEHP after oral DEHP
Source text: A nonlinear mixed effect (NLME) modeling approach was used to analyze simultaneously all data obtained from the different rabbits after both IV and oral administrations and to provide robust estimates of the typical TK parameters.
The primary parameters of the model, namely the volume of distribution of the central compartment (V1), the first-order rate constants ( K10 , K12 , K21 , and Kabs plus K13 , K31 for PFOA) and the bioavailability (F) and their associated precisions [standard error (SE)] were estimated by minimizing an objective function value (OFV) expressed as minus twice the log of the likelihood estimation ( −2LL ). […] Marginal likelihood was approximated by using the Laplacian engine by default and, when this engine was unable to determine the SE of the estimate, the Quasi-Random Parametric Expectation Maximization (QRPEM) was selected.
Between subject variability (BSV) of the parameters was measured using the exponential model θparameter_i=θtv_parameter×exp (ηi), where θparameter_i is the parameter estimated for the ith individual, θtv_parameter is the typical population value of the parameter, and ηi is the deviation associated with the ith individual from the corresponding value of the parameter at the population level.
The distribution of ηi was assumed to be normal with a mean of 0 and a variance ω² . BSV was reported as a coefficient of variation (CV) in the original scale CV(%)=100× exp (ω^2)−1 .
The residual variance was modeled using a combined additive and proportional error model Cobsij=Cpredij(1 + ε1ij) + ε2ij, where Cobsij and Cpredij are respectively the jth observed and predicted concentrations for the ith individual, and ε1ij and ε2ij are the multiplicative and additive residual errors.
Secondary parameters were calculated from the population primary parameters.
The clearance values (CL) were estimated using Equation 5: (5) CL=K10×V1, where V1 is the volume of the central compartment and K10 is the elimination rate constant from the central compartment.
The volume of the peripheral compartment (V2) was estimated with Equation 6: (6) V2=V1×(K12/K21), where K12 and K21 are the distribution rate constants between the central and the peripheral compartments.
The clearance of distribution (Q) was estimated using Equation 7: (7) Q=K12×V1, with […] and K12 as defined above.
The volume of distribution associated with the terminal phase was estimated with Equation 10: (10) VZ=CL/λZ, with λZ as defined above.
The AUC was computed as a secondary parameter using Equation 11: (11) AUC=Dose/CL.
The terminal half-life was estimated with Equation 1, as previously described.

[2] = TK assay, oral mixture dosing: serum concentrations and noncompartmental analysis (sparse data); settings: for Serum concentration: oral; for AUC0−inf / Cmax: serum; for Cmax: doses in Table 3 r3, MEHP measured after oral DEHP, BPSG after BPS
Procedure: The experiment was carried out on thirty 10-wk old female New Zealand white rabbits (INRA 1777 line) weighing 2.37±0.14kg . […] Blood samples were taken at the designated time points post IV and oral administration: 15 min, 30 min, 1 h, 2 h, 4 h, 8 h, 12 h, 24 h, 3 d, 7 d, and 28 d from groups of 3 or 6 rabbits at each sampling time. Each rabbit was sampled 3 times and 3 rabbits were sampled at each sampling time, except at 30 min post administration, when 6 samples were collected to provide a sufficient blood volume for assaying the compounds. The doses and assay time points were selected to allow the calculation of TK parameters (Table 1) based on preliminary TK data. Residual concentrations of the compounds, and their possible evolution over time, were determined by sampling six entirely untreated rabbits during the TK study on the day of drug administrations, then 14 d and 28 d later.
The volume administered was adjusted to the animal’s body weight (BW) recorded the day before.
Intravenous administrations were performed via an indwelling catheter (22G Terumo, 0.9×25mm ) just after its insertion into an ear vein. […] For oral administrations, the mixture of all compounds ( 4mL/kg ) was deposited directly in the mouth of rabbits using a catheter (22G BD Insyte 22G, 0.9×25mm ). Prior to the study, the rabbits had been trained to gradually swallow water and then corn oil.
Blood samples were collected from the auricular artery using a 20 G needle ( 0.9×25mm ) and a dry tube. The first two blood samples were 8–10mL in volume, whereas a large volume (about 20mL ) was obtained antemortem immediately after electrical stunning (95LX rabbit stunner; Burdis), followed by exsanguination.
Serum concentration-time profiles of the different compounds were first analyzed using a noncompartmental approach (NCA) involving a sparse data option. Sparse data methodology consists of calculating TK parameters based on the mean profile of all the subjects in the dataset and is appropriate when a rich data series cannot be obtained, as in the present experiment ([FDA 1999]). The area under the concentration time curve ( AUC0−tlast ) and the area under the first moment curve ( AUMC0−tlast ) from dosing time ( t=0 ) to the time of the last measurable concentration were calculated using the linear trapezoidal rule after IV and oral dosing. The area under the serum concentration time curve from dosing time to infinity ( AUC0−inf ) was obtained by adding to AUC0−tlast the area extrapolated from the time of the last measurable concentration to infinity by dividing the last quantifiable serum concentration by the slope of the terminal phase ( λZ ), as estimated by linear regression using the best fit option of Phoenix®.
The clearance (CL) and apparent clearance (CL_F) were respectively estimated after IV and oral administrations by dividing the administered dose by the AUC0−inf calculated for each analyte.
The terminal half-life (HL) was estimated with Equation 1: (1) HL=0.69315/λZ where λz is the slope of the terminal phase.
The oral bioavailability (F) was estimated using Equation 2: (2) F=AUCvo0−tlast×Doseiv/AUCiv0−tlast×Dosevo, where AUCiv0−tlast and AUCvo0-tlast are the values of AUC0−tlast obtained after IV and oral dosing, respectively, and Doseiv and Dosevo are the IV and oral doses.

[3] = population primary parameter, typical value, mean
[4] = population secondary parameter, mean
[5] = oral mixture dosing, NCA, n=12, MEHP after oral DEHP
[6] = rabbit 13, 4.30 h, MEHP after oral DEHP
[7] = rabbit 14, 0.37 h, MEHP after oral DEHP
[8] = rabbit 14, 4.17 h, MEHP after oral DEHP
[9] = rabbit 15, 4.05 h, MEHP after oral DEHP
[10] = rabbit 15, 23.98 h, MEHP after oral DEHP
[11] = rabbit 16, 0.55 h, MEHP after oral DEHP
[12] = rabbit 16, 8.22 h, MEHP after oral DEHP
[13] = rabbit 16, 72.00 h, MEHP after oral DEHP
[14] = rabbit 17, 0.53 h, MEHP after oral DEHP
[15] = rabbit 17, 8.48 h, MEHP after oral DEHP
[16] = rabbit 17, 72.00 h, MEHP after oral DEHP
[17] = rabbit 18, 0.55 h, MEHP after oral DEHP
[18] = rabbit 18, 8.00 h, MEHP after oral DEHP
[19] = rabbit 18, 71.96 h, MEHP after oral DEHP
[20] = rabbit 19, 1.02 h, MEHP after oral DEHP
[21] = rabbit 19, 12.00 h, MEHP after oral DEHP
[22] = rabbit 20, 1.07 h, MEHP after oral DEHP
[23] = rabbit 20, 12.00 h, MEHP after oral DEHP
[24] = rabbit 21, 1.08 h, MEHP after oral DEHP
[25] = rabbit 21, 12.00 h, MEHP after oral DEHP
[26] = rabbit 22, 2.00 h, MEHP after oral DEHP
[27] = rabbit 23, 2.00 h, MEHP after oral DEHP
[28] = rabbit 24, 2.22 h, MEHP after oral DEHP

Structure (SMILES)	AUCIV ([1]; population secondary parameter) [µM·h]	AUCVO ([1]; population secondary parameter) [µM·h]	tvK10 (elimination rate constant from the central compartment) [1, 3] [h⁻¹]	tvVc (volume of the central compartment) [1, 3] [L/kg]	MRT [1, 4] [h]	MRT [2, 5] [h]	Tmax [2, 5] [h]	Serum concentration [2, 6] [nM]	Serum concentration [2, 7] [nM]	Serum concentration [2, 8] [nM]	Serum concentration [2, 9] [nM]	Serum concentration [2, 10] [nM]	Serum concentration [2, 11] [nM]	Serum concentration [2, 12] [nM]	Serum concentration [2, 13] [nM]	Serum concentration [2, 14] [nM]	Serum concentration [2, 15] [nM]	Serum concentration [2, 16] [nM]	Serum concentration [2, 17] [nM]	Serum concentration [2, 18] [nM]	further results
CCCCC(CC)COC(=O)c1ccccc1C(=O)O (centres unmarked) [MEHP, mono(2-ethylhexyl)phthalate]	9.0	53	1.411	0.329	8.2	12.0	4.05	5150	1090	5840	6870	270	1490	2380	33	2290	4200	25	2150	3830	F value for MEHP (fraction of the DEHP dose metabolized into MEHP) ([1]; MEHP IV vs DEHP oral, NLME model): 87%; tvK12 (distribution rate constant) [1, 3]: 0.285 h⁻¹; Clearance [1, 4]: 7.83 mL/min/kg; Volume(s) of the peripheral compartment ([1]; population secondary parameter, mean, for PFOA first peripheral compartment): 3.5 L/kg; MRT ([1]; population secondary parameter, mean, listed as mono-2-ethylhexyl phthalate): a few hours; half-life ([1]; terminal, population secondary parameter, mean): 31 h; F (fraction of the dose of DEHP that has been metabolized into MEHP) ([2]; NCA, MEHP after oral DEHP vs IV MEHP, as fraction): 0.99; Serum concentration [2, 19]: 91 nM; Serum concentration [2, 20]: 4160 nM; Serum concentration [2, 21]: 1610 nM; Serum concentration [2, 22]: 3160 nM; Serum concentration [2, 23]: 1930 nM; Serum concentration [2, 24]: 2800 nM; Serum concentration [2, 25]: 1910 nM; Serum concentration [2, 26]: 3290 nM; Serum concentration [2, 27]: 2930 nM; Serum concentration [2, 28]: 1570 nM; AUC0−inf [2, 5]: 65.2 µM·h; Cmax ([2]; oral mixture dosing, NCA, n=12): 6870 nM; half-life ([2]; terminal, oral mixture dosing, NCA, n=12, MEHP after oral DEHP): 10.4 h
O=S(=O)(c1ccc(O)cc1)c1ccc(O)cc1 [BPS, bisphenol S]	3.3	3.6	1.895	1.681	6.3	6.54	0.23	140	1550	130	110	12	320	50	< 4	58	121	< 4	940	49	tvKabs (rate constant of absorption), fixed ([1]; fixed to 10, estimation of Kabs converging toward infinity): 10 h⁻¹; Oral systemic exposure ([1]; oral, dose-normalised AUC): 0.20 μmol/h/L per μmol/kg BW; Serum concentration [2, 19]: < 4 nM; Serum concentration [2, 20]: 190 nM; Serum concentration [2, 21]: 87 nM; Serum concentration [2, 22]: 150 nM; Serum concentration [2, 23]: 51 nM; Serum concentration [2, 24]: 97 nM; Serum concentration [2, 25]: 100 nM; Serum concentration [2, 26]: 120 nM; Serum concentration [2, 27]: 88 nM; Serum concentration [2, 28]: 110 nM; AUC0−inf [2, 5]: 3.38 µM·h; Cmax ([2]; oral mixture dosing, NCA, n=12): 6930 nM

— paper PMC8597046, “Use of Mixture Dosing and Nonlinear Mixed Effect Modeling of Eight Environmental Contaminants in Rabbits to Improve Extrapolation Value of Toxicokinetic Data” (Environmental Health Perspectives, 2021)
